Measurements reported in PubChem BioAssay (NCI).
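Assay format: 96-well plates, 48-hour exposure. The concentration for 50% growth inhibition is given as GI50. At the TGI there is no net growth.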

Experiments:
Test in all cases: DTP human tumour cell line panel, 48 h
[1] = system: SW-620 colon
[2] = system: LOX IMVI melanoma
[3] = system: HT29 colon
[4] = system: 786-0 renal
[5] = system: HCC-2998 colon
[6] = system: A549 NSCLC
[7] = system: SK-MEL-2 melanoma
[8] = system: TK-10 renal
[9] = system: A498 renal
[10] = system: ACHN renal

Row | SMILES | GI50 [1] [µM] | TGI [1] [µM] | GI50 [2] [µM] | TGI [2] [µM] | GI50 [3] [µM] | TGI [3] [µM] | GI50 [4] [µM] | TGI [4] [µM] | GI50 [5] [µM] | TGI [5] [µM] | GI50 [6] [µM] | TGI [6] [µM] | GI50 [7] [µM] | TGI [7] [µM] | GI50 [8] [µM] | TGI [8] [µM] | GI50 [9] [µM] | TGI [9] [µM] | GI50 [10] [µM] | TGI [10] [µM]
1 | CSc1ccccc1C#Cc1ccccc1C#CCCCCO | 11 | 26.2 | 5.87 | 19.2 | 5.46 | 19.2 | 11 | 26.6 | 10 | 22.9 | 12.6 | 27.1 | 17.9 | 35.4 | 13.7 | 30.4 | 2.24 | 14.3 | 11.3 | 23.4
2 | CS/C(=N\c1nccs1)NC(=O)c1cccc(Cl)c1 |  | > 100 |  | > 100 |  | > 100 |  | > 100 |  | > 100 |  | > 100 |  | > 100 |  | > 100 |  | > 100 |  | > 100
3 | OCC1OC(n2cnc3c(=S)nc[nH]c32)C(O)C1O (stereo not given) | 7.29 | > 2500 | 0.705 | > 2500 | 4.72 | > 2500 | 2.71 | > 2500 | 2.46 | > 2500 | 42.5 | > 2500 | > 100 | > 2500 | 4.37 | > 2500 | 19.8 | > 2380 | 4.87 | > 2500
4 | CC12CC(OC(=O)[C@]1(C)O)[C@@H]([C@]1(O)CC[C@H]3[C@@H]4C[C@H]5O[C@]56[C@@H](O)C=CC(=O)[C@]6(C)[C@H]4CC[C@@]31C)C2 (stereo not given in full) |  | 12.4 |  | 15.9 |  | 15.2 |  | 10.1 |  | 36.4 |  | > 100 |  | 21 |  | 20.2 |  | 33.2 |  | 22.9
5 | CCNCCNc1cc(C2CCCCC2)c(C#N)c2nc3ccccc3n12 | 1.44 | 3.15 | 0.568 | 2.08 | 1.73 | 3.82 | 1.57 | 3.04 | 2.53 | 6.79 | 2.19 | 4.76 | 2.29 | 4.71 | 2.41 | 6.12 | 1.56 | 2.95 | 1.79 | 3.86
6 | O=C(N/N=C/c1cc([N+](=O)[O-])ccc1O)c1cccc2ccccc12 | 3.7 | > 100 | 2.02 | 53.4 | 5.74 | > 100 | 3.29 | 27.7 | 5.3 | > 100 | 4.56 | > 100 | 6.69 | > 100 | 4.4 | 72.9 | 2.71 | 29.3 | 3.08 | 44.7
7 | Cc1ccc2c(c1)C(=O)c1c-2n(CCCBr)c(=O)c2cc([N+](=O)[O-])ccc12 | 51.6 | > 100 | 17.9 | > 100 | 62.8 | > 100 | 57.5 | > 100 | 11.7 | 77.6 | > 100 | > 100 | > 100 | > 100 | > 100 | > 100 | 51.7 | > 100 | 23.3 | > 100
8 | COC(=O)C1=C(C(=O)OC)SC(=C(N=Nc2ccccc2)c2ccccc2)S1 |  | > 100 |  | > 100 |  | > 100 |  | > 100 |  | > 100 |  | > 100 |  | > 100 |  | > 100 |  | > 100 |  | > 100
9 | Nc1n[nH]c2ccc([C@@H]3Nc4ccc5[nH]ncc5c4[C@H]4C5C=CC(C5)[C@@H]34)cc12 (stereo not given in full) | 0.367 | 40.4 | 0.443 | 11.8 | 0.357 | 28.7 | 0.6 | 16.8 | 0.378 | 12.1 | 0.444 | > 85.2 | 4.14 | 28 | 12 | > 100 | 0.0876 | 0.492 | 0.562 | 47.8
10 | COC(=O)C(F)C(Br)C(=O)OC (stereo not given) |  | 4.56 |  | 32 |  | 5.43 |  | 6.03 |  | 21 |  | 39.1 |  | 32.6 |  | 5.37 |  | 43.9 |  | 3.39
11 | O=C(OCCBr)c1ccc(Cl)c([N+](=O)[O-])c1 | 14.6 | 30.2 | 10.2 | 26 | 2.51 | 5.14 | 18.6 | 34.1 | 1.91 | 3.67 | 17.7 | 35.4 | 16.3 | 35.1 | > 51.1 | > 86.8 | 17.7 | 42.4 | 18.8 | 34.4
12 | COc1cc(C2C3=C(COC3=O)Nc3cc4c(cc32)CCC4)cc2c1OCO2 (stereo not given) | 0.0413 | 13.2 | 0.0496 | 12.1 | 0.0299 | 0.845 | 0.0881 | 14.6 | 0.26 | 4.88 | 0.061 | 12.7 | 0.0989 | 3.47 | 10.1 | 32.4 | 0.025 | 0.0964 | 0.114 | 21.4
13 | Cc1ccc(Sc2ccc(C)cc2[N+](=O)[O-])c([N+](=O)[O-])c1 |  | > 100 |  | > 100 |  | > 10 |  | > 100 |  | > 100 |  | > 100 |  | > 100 |  | > 100 |  | > 100 |  | > 100
14 | COc1cc(/C=C/C(=O)c2sc(NNC(C)=O)nc2C)ccc1O |  | > 100 |  | > 100 |  | > 100 |  | > 100 |  | > 100 |  | > 100 |  | > 100 |  | > 100 |  | > 100 |  | > 100
15 | CC1CCC(C(C)C)C(O[C@@H]2OC(=O)C[C@@H]2Sc2ccccc2)C1 (stereo not given in full) |  | 39.2 |  | 26.3 |  | 34.3 |  | 45.9 |  | 55.9 |  | 85.9 |  | 34.9 |  | > 100 |  | 74.7 |  | 41.7
